Where two headings read alike, the source gives them in different places.
Experiments:
baboons = assay: Breeding of immunized baboons (pre-mate titer, ovulation, pregnancy), Diazo-β-HCG presensitized, Diazo-β-HCG-(111-145) booster; format: in vivo, baboon; conditions: for Pre-Mate Titer: baboon 2, matings No. 1-10 over approximately one year
Experimental: Baboons were immunized initially with a beta subunit of HCG modified by diazotization in a manner similar to that described in conjunction with Example II. Following this initial administration, the baboons were injected 21 and 42 days later with the peptide of Structure (II) above which had been modified by the same diazotization process. The levels were maintained for a period of over one year.
The Table presents the results of mating these animals ten times over a period of approximately one year. […] Such cross reactivity may be avoided by the utilization of the fragment conjugation procedures set forth in detail hereinabove.

[1] = system: peptide used in the conjugate (Structure (II), (XII), (XIV), (X)); assay: Antibody level to the peptide of the conjugate in immunized mice (^125I antigen, double antibody technique); format: in vivo; conditions: for Antibody level to Structure (XII): 52 days; for Antibody Level to Peptide: mice, carrier series
HCG [2] = assay: Antibody level to HCG in immunized mice (^125I antigen, double antibody technique); format: in vivo; conditions: for Antibody level to CG: 52 days; for Antibody Level to HCG: mice, carrier series
HCG [3] = format: in vivo, rabbit
female baboons = assay: Fertility rates (matings and pregnancies) of immunized female baboons; format: in vivo, baboon; conditions: CFA

In the case of “Diazo-β-HCG-(111-145): peptide of Structure (II) modified by diazotization, booster after presensitization with diazotized beta subunit of HCG (DDPRFQDSSSSKAPPPSLPSPSRLPGPSDTPILPQ; diazo conjugate; UniProt P0DN86 131-165, looked up, fragment)”, the “Pre-Mate Titer” value (baboons; before Mating No. 2) is reported as 4.10, the “Pre-Mate Titer” value (baboons; before Mating No. 3) is reported as 4.00 and the “Pre-Mate Titer” value (baboons; before Mating No. 4) is reported as 3.89. The “Pre-Mate Titer” value (baboons; before Mating No. 5) was 3.76, the “Pre-Mate Titer” value (baboons; before Mating No. 6) was 5.00 and the “Pre-Mate Titer” value (baboons; before Mating No. 7) was 4.75. The “Pre-Mate Titer” value (baboons; before Mating No. 8) was 4.20, the “Pre-Mate Titer” value (baboons; before Mating No. 9) was 4.25 and the “antibody cross reactivity with LH” value (baboons; in vivo) was “antibody cross reactivity with LH was observed”.

With “N-Palmitoyl-S-[2(R,S)-3-dipalmitoyloxy-propyl]-L-Cys-L-Ser-L-Ser-L-Asn-L-Ala-L-Glu [CGP 16940]” the “Antibody level to Structure (XII)” value [1] was 110.0 ng/mL, the “Antibody level to Structure (XII)” value ([1]; C3H/He mice, same conjugate) was 19.2 ng/mL and the “Antibody level to Structure (XII)” value ([1]; DBA/1 mice, same conjugate) was 173.0 ng/mL. The “Antibody level to Structure (XII)” value ([1]; SJL mice, same conjugate) was 369.0 ng/mL, the “Antibody level to CG” value (HCG [2]) was 1.0 ng/mL and the “Antibody level to CG” value (HCG [2]; C3H/He mice, same conjugate) was less than 1.0 ng/mL. The “Antibody level to CG” value (HCG [2]; DBA mice, same conjugate) was less than 1.0 ng/mL, the “Antibody level to CG” value (HCG [2]; SJL mice, same conjugate) was 8.6 ng/mL and the “HCG antibody levels compared with the CFA immunized rabbits” value (HCG [3]; in vivo) was “significantly lower”.

In the case of “NAc-Mur-L.Ala-D.isoGln-L.Ala-Cephalin [CGP 19835]”, the “Mean Antibody Level-^125I-HCG” value (HCG [3]; as E193, 4 weeks) is reported as 286.7 M/L × 10^10, the “Mean Antibody Level-^125I-HCG” value (HCG [3]; as E193, 5 weeks) is reported as 140.3 M/L × 10^10 and the “Mean Antibody Level-^125I-HCG” value (HCG [3]; as E193, 6 weeks) is reported as 172.0 M/L × 10^10. The “Mean Antibody Level-^125I-HCG” value (HCG [3]; as E193, 7 weeks) was 123.4 M/L × 10^10, the “Mean Antibody Level-^125I-HCG” value (HCG [3]; as E193, 8 weeks) was 138.9 M/L × 10^10 and the “Mean Antibody Level-^125I-HCG” value (HCG [3]; as E193, 9 weeks) was 105.2 M/L × 10^10. For the same substance, the “Mean Antibody Level-^125I-HCG” value (HCG [3]; as E193, 10 weeks) was 151.3 M/L × 10^10, the “Mean Antibody Level-^125I-HCG” value (HCG [3]; as E193, 11 weeks) was 169.3 M/L × 10^10 and the “Mean Antibody Level-^125I-HCG” value (HCG [3]; as E193, 12 weeks) was 107.8 M/L × 10^10. For the same substance, the “Mean Antibody Level-^125I-HCG” value (HCG [3]; in vivo) was 19.3 M/L × 10^10.

In the case of NGlycol-Mur-L. a -Abu-D.isoGln [DT-1], the “Mean Antibody Level-^125I-HCG” value (HCG [3]; as E193, 4 weeks) is reported as 145.1 M/L × 10^10, the “Mean Antibody Level-^125I-HCG” value (HCG [3]; as E193, 5 weeks) is reported as 184.1 M/L × 10^10 and the “Mean Antibody Level-^125I-HCG” value (HCG [3]; as E193, 6 weeks) is reported as 268.6 M/L × 10^10. The “Mean Antibody Level-^125I-HCG” value (HCG [3]; as E193, 7 weeks) was 371.5 M/L × 10^10, the “Mean Antibody Level-^125I-HCG” value (HCG [3]; as E193, 8 weeks) was 366.2 M/L × 10^10 and the “Mean Antibody Level-^125I-HCG” value (HCG [3]; as E193, 9 weeks) was 654.8 M/L × 10^10. For the same substance, the “Mean Antibody Level-^125I-HCG” value (HCG [3]; as E193, 10 weeks) was 729.4 M/L × 10^10, the “Mean Antibody Level-^125I-HCG” value (HCG [3]; as E193, 11 weeks) was 627.5 M/L × 10^10 and the “Mean Antibody Level-^125I-HCG” value (HCG [3]; as E193, 12 weeks) was 559.0 M/L × 10^10. The “HCG antibody levels compared with rabbits receiving adjuvants CGP 16940 and 12908” value (HCG [3]; in vivo) was “significantly greater” and the “Mean Antibody Level-^125I-HCG” value (HCG [3]; in vivo) was 31.1 M/L × 10^10.

“Structure (XII): residues 109-145 of beta-HCG, SEQ ID NO: 13; unconjugated in Table 11 (carrier None) (TCDDPRFQDSSSSKAPPPSLPSPSRLPGPSDTPILPQ; listed as Homo sapiens)” was tested, and the “Antibody Level to Peptide” value ([1]; peptide of Structure (XII), 21 days after primary immunization) was 1.3 ng/mL, the “Antibody Level to Peptide” value ([1]; 35 days) was 0.8 ng/mL and the “Antibody Level to HCG” value (HCG [2]; 21 days) was 0.1 ng/mL. For the same substance, the “Antibody Level to HCG” value (HCG [2]; 35 days) was 0.1 ng/mL.

With “Tetanus Toxoid: carrier protein given alone to the control group” the “Fertility Rate” value (female baboons; Mating Cycle 1) was 66.7%, the “Number Pregnant” value (female baboons; Mating Cycle 1) was 10 and the “Fertility Rate” value (female baboons; Mating Cycle 2) was 80.0%. The “Number Pregnant” value (female baboons; Mating Cycle 2) was 4, the “Fertility Rate” value (female baboons; Mating Cycle 3) was 100.0% and the “Number Pregnant” value (female baboons; Mating Cycle 3) was 1. For the same substance, the “Overall Fertility Rate” value (female baboons; all matings of three mating cycles) was 71.4% and the “Total Number Pregnant” value (female baboons; three mating cycles) was 15.
